Reference: patent publication US20260083864A1, “CONTRAST AGENTS FOR USE IN DIAGNOSTIC COMPUTED TOMOGRAPHY IMAGING” (Bayer Aktiengesellschaft, priority 2022, published 2026)

What was measured:
[1] = Excretion study in rats (5 days) and residual gadolinium organ distribution (7 days); assay type: in vivo, rat; details: 0.1 mmol Gd/kg bw i.v.; for Σ organs and carcass [% Dose]: 7 d post injection
Experimental: The excretion and organ distribution of Example 1 and 15 were determined in male rats (Han-Wistar, n=3). The compound was administered as a sterile aqueous solution (50 mmol Gd/L) as a bolus in the tail vein of the animals. The dose was 0.1 mmol Gd/kg bw. Urine was collected in the following time periods 0-1 h, 1-3 h, 3-6 h, 6-24 h, 1-2d and 2-5d post injection […] and feces 0-1d, 1-2d and 2-5d post injection. As a control, 3 animals were treated in the same way with RC1. On day 7 the animals were sacrificed, and the following organs were excised: blood, liver, kidney, spleen, heart, lung, brain, muscle, skin, stomach, gut, bone and bone marrow. The remaining carcass was freeze dried and ground to a fine powder. The Gd concentration in the organs and the carcass was determined by ICP-MS (ICP-MS Agilent 7500a, Waldbronn, Germany). The compounds are excreted via dual pathway (liver and kidney). Less than 1% of the administered dose was present in the body 7 days after the injection.

[2] = reference compounds, 1.5 T, 37° C., from Rohrer et al.; cited from earlier work
[3] = reference compounds, 1.5 T, 37° C., bovine plasma instead of human plasma, from Rohrer et al.; cited from earlier work
[4] = tested on: plasma proteins; test: Plasma protein binding, equilibrium dialysis, monkey; assay type: in vitro ADME
Text: The binding of Example 1 and 15 to plasma proteins of different species (human, dog, monkey, rabbit, mouse and rat) was investigated in vitro by using equilibrium dialysis in reusable 96-well Micro-Equilibrium Dialysis Devices (ht dialysis) (Banker M J et al. J Pharm Sci. 2003 May; 92 (5): 967-74).

[5] = tested on: cryopreserved human hepatocytes; test: In vitro metabolism in cryopreserved human hepatocytes; assay type: in vitro ADME; details: 5 μM, incubation time of 4 h, LC-MS
Experimental: The in vitro metabolism was investigated in cryopreserved human and rat hepatocytes (Li A P et al. Biomark Med. 2014; 8 (2): 173-83). Cryopreserved human (WSS) and rat hepatocytes (Wistar rat, RWH137, male) were incubated with the test compound (incubation concentration: 5 μM). The amount of remaining compound was related to the initial amount (0 mins). The cells were removed from the liquid nitrogen. The vial was immersed in the 37° C. water bath and shaken gently (by hand) until most of the ice was melted (approx. 90 sec.). The cell suspensions were transferred e.g. into a 50 ml-centrifuge tube and 12 ml of 4° C.-cold buffer (e.g. Krebs-Henseleit or Williams Medium E) were added. The cell suspension was centrifuged at 50×g for 5 mins. The buffer was aspirated, and the cells resuspended in 5 ml of fresh warm buffer. An aliquot of 50 μl was mixed with 200 μl trypan blue to determine the cell density and cell viability. The cell suspension was adjusted to a final concentration of 0.8 Mio hepatocytes per mL. The incubations were performed in 96 well plates (1.2 ml volume, negative control without cells). The 0 min samples were stopped immediately by adding 250 μl of ice-cold methanol. All other samples are shaken on an Heidolph®-rotor during incubation in a 37° C. incubator for the indicated period of 4 hours. Aliquots of the samples were used for analysis. All samples were analyzed using LC-MS at 0 h, 1 h, 2 h and 4 h (exemplary LC-MS: Accucore C-18 column, 30° C., 0.35 mL/min flow rate, solvent A: 10 mM Ammonium formate+5% MeCN, pH4 and solvent B: MeCN+0.1% formic acid; […] injection volume, gradient: 90% A, 10% B, 5 min 70% A and 30% B, 8 min 0% A and 100% B).

[6] = Biliary elimination in bile duct cannulated (BDC) rats; details: 0.1 mmol Gd/kg bw i.v.
Experimental: All animals are initially anesthetized using a body weight-adjusted intramuscular injection of a mixture (1+2) of xylazine hydrochloride (20 mg/mL, Rompun 2%, Bayer Vital GmbH, Leverkusen) and ketamine hydrochloride (100 mg/mL, Ketavet, Pfizer, Pharmacia GmbH, Berlin) using 1 mL/kg body weight. The continuous anesthesia of the animals is achieved by the intravenous injection of 1.5 mL per hour (Braun perfusor infusion of 1+2, 1:20 saline, xylazine hydrochloride 20 mg/mL, Rompun 2%, Bayer Vital GmbH, Leverkusen and ketamine hydrochloride 100 mg/mL, Ketavet, Pfizer, Pharmacia GmbH, Berlin) via tail vein (Introcan, 24G, yellow). The animals received 0.1 mmol Gd/kg bw as intravenous bolus injection via tail vein (50 mmol Gd/L formulation). Bile was sampled 0-0.5 h, 0.5-1 h, 1-2 h, 2-3 h und 3-4 h post injection. […] The bile fractions (n=3 times 10 μL) were dried for 2 h at 90° C. and 50 μL 65% nitric acid (HNO3, Fa. Fisher, Optima Grade #1219010) and 30 μL hydrogen peroxide 30% (H2O2 Fa VWR Chemicals, AnalaR NORMAPUR, #18J024022) were added and processed in microwave oven (5 cycles: 5 min 40W, 5 min 120W, 10 min 200W, 10 min 320W and 25 min 400W, Fa. CEM, Mars5 Xpress).

Structure (SMILES)	Total recovery [% Dose] [1] [%]	Excretion in urine [% Dose] ([1]; 0-1 h post injection) [%]	Excretion in feces [% Dose] ([1]; 0-1 d post injection) [%]	Excretion in urine [% Dose] ([1]; 1-3 h post injection) [%]	Excretion in feces [% Dose] ([1]; 1-2 d post injection) [%]	Excretion in urine [% Dose] ([1]; 1-2 d post injection) [%]	Excretion in feces [% Dose] ([1]; 2-5 d post injection) [%]	Excretion in urine [% Dose] ([1]; 2-5 d post injection) [%]	Excretion in urine [% Dose] ([1]; 3-6 h post injection) [%]	Excretion in urine [% Dose] ([1]; 6-24 h post injection) [%]	Σ organs and carcass [% Dose] [1] [%]	r1 water [2] [L/mmol/s]	r1 plasma (r1 human plasma) [3] [L/mmol/s]	Fraction unbound fu [4] [%]	Metabolites detected [5]	Biliary excretion, % of injected dose, Mean ± SD (cumulative) ([6]; bile fraction 0-0.5 h) [%]	Biliary excretion, % of injected dose, Mean ± SD (cumulative) ([6]; bile fraction 0.5-1 h) [%]	Biliary excretion, % of injected dose, Mean ± SD (cumulative) ([6]; bile fraction 1-2 h) [%]	Biliary excretion, % of injected dose, Mean ± SD (cumulative) ([6]; bile fraction 2-3 h) [%]	Biliary excretion, % of injected dose, Mean ± SD (cumulative) ([6]; bile fraction 3-4 h) [%]
CCOc1ccc(CC(CN(CCN(CC(=O)[O-])CC(=O)[O-])CC(=O)[O-])N(CC(=O)[O-])CC(=O)[O-])cc1.[Gd+3].[Na+].[Na+] (stereo not shown) [RC1, gadoxetate disodium, reference compound]	104.6 ± 2.4	23.2 ± 1.6	77.5 ± 2.7	23.5 ± 1.5	80.6 ± 2.9	23.7 ± 1.5	80.8 ± 2.9	23.7 ± 1.5	23.6 ± 1.5	23.7 ± 1.5	0.14 ± 0.08	3.3	5.2							
CCOc1ccc(CCOCC(C(=O)O)N2CCN(CC(=O)[O-])CCN(CC(=O)[O-])CCN(CC(=O)[O-])CC2)cc1.[Gd+3] (stereo not shown) [Example 1, gadolinium 2,2′,2″-(10-{1-carboxy-2-[2-(4-ethoxyphenyl)ethoxy]ethyl}-1,4,7,10-tetraazacyclododecane-1,4,7-triyl)triacetate]	98.6 ± 2.1	39.8 ± 6.8	55.6 ± 5.6	40.3 ± 6.8	56.9 ± 6.6	40.9 ± 7.4	57.0 ± 6.6	40.9 ± 7.4	40.3 ± 6.8	40.8 ± 7.4	0.65 ± 0.07			94	No metabolites were detected	55.5 ± 1.7	62.6 ± 0.7	65.1 ± 1.3	65.6 ± 1.6	65.8 ± 1.7
CCOCCOCCOc1ccc(CCC[C@@H](C(=O)O)N2CCN([C@@H](CO)C(=O)[O-])CCN([C@@H](CO)C(=O)[O-])CCN([C@@H](CO)C(=O)[O-])CC2)cc1.[Gd+3] [Example 15, gadolinium (2S,2′S,2″S)-2,2′,2″-{10-[(1S)-1-carboxy-4-{4-[2-(2-ethoxyethoxy)ethoxy]phenyl}butyl]-1,4,7,10-tetraazacyclododecane-1,4,7-triyl}tris(3-hydroxypropanoate)]	97.9 ± 5.4	12.6 ± 11.1	78.6 ± 6.2	17.3 ± 3.4	80.0 ± 5.3	17.7 ± 3.3	80.0 ± 5.3	17.7 ± 3.3	17.4 ± 3.3	17.6 ± 3.3	0.11 ± 0.03			88	No metabolites were detected					
CCOCCOCCOc1ccc(CC(C(=O)O)N2CCN(CC(=O)[O-])CCN(CC(=O)[O-])CCN(CC(=O)[O-])CC2)cc1.[Gd+3] (stereo not shown) [Example 2, gadolinium 2,2′,2″-{10-[1-carboxy-2-{4-[2-(2-ethoxyethoxy)ethoxy]phenyl}ethyl]-1,4,7,10-tetraazacyclododecane-1,4,7-triyl}triacetate]														>95	No metabolites were detected					
